Test results: patent publication US7510843B2, “Use of a polypeptide for detecting, preventing or treating a pathological condition associated with a degenerative, neurological or autoimmune disease” (Biomerieux S.A., priority 1999, dated 2009)

Assays:
[1] = Clinical monitoring of an MS patient after a treatment flash; format: in vivo, human; conditions: MS patient No. 2, progressive form, flash on D1 after attack; worsening signs at D60
Text: (§1) Urines of this patient were collected during the progression of their disease. The patient was hospitalized on D0 for an attack.

[2] = system: GM2AP and Saposin B proteins in the urines; test: Elisa assay of GM2AP and Saposin B in the urine of an MS patient after a treatment flash; format: in vivo, human; conditions: MS patient No. 2, progressive form, up to 23 days; increase again, high at D60
Text: as §1

For `O=P1(N(CCCl)CCCl)NCCCO1` (centres unmarked) [Endoxan, cyclophosphamide], the “clinical effect of the flash” value [1] was “clinical improvement” and the “GM2AP and Saposin B concentrations in urine over time after the flash” value [2] was “decrease gradually over time”.
